Reference: patent US9655968B2, “Baclofen solution for low-volume therapeutic delivery” (Wayne State University, priority 2007, dated 2017)
In brackets after ≈: the same amount, converted by molar mass. Where two headings read alike, the source gives them in different places.

Legend:
[1] = Baclofen solubilization study in multivalent physiologic ion (MPI) solution; assay type: physicochemical; details: aqueous buffer, thermodynamic from solid
Protocol: Multivalent physiologic ion solution formation. A solution (A) is produced with 8.66 g NaCl, 0.224 g KCl, 0.206 g CaCl2.2H2O and 0.163 g MgCl2.6H2O dissolving in 500 mL of deionized water. A solution (B) is produced with 0.214 g Na2HPO4.7H2O and 0.027 g NaH2PO4.H2O dissolving in 450 mL of water. The pH is adjusted to 6.0, 6.5, 7.0, 7.3, 7.6 and 8.0 as necessary with either NaOH or H3PO4 and dilution to final volume of 500 mL with deionized water. A final multivalent physiologic ion solution is obtained by mixing equal parts of Solution A and B. pH is tested and adjusted to the desired final pH if necessary. All reagents are available from sources known in the art. […]
Baclofen solubilization study in multivalent physiologic ion solution. […] The aliquots are analyzed by high performance liquid chromatography (HPLC). […] Baclofen concentrations above 4 mg/ml are readily achieved.
Analyses of baclofen solutions to confirm concentrations. Baclofen concentrations of Examples 2 and 3 are determined to confirm soluble levels in MPI or aCSF in the inventive solutions. Baclofen concentrations are quantified by LC/MS/MS using an Applied Biosystems API 400 electrospray triple quadrupole mass spectrometer. […] The transition between 214.1 and 151.2 is used for quantification. […]
Analyses of baclofen solutions to confirm concentrations. […] Baclofen concentrations are determined within 10% of expected values.

[2] = cited from earlier work
[3] = over a 10-year period, near neutral pH, room temperature; calculated, Ahuja 1985; cited from earlier work
[4] = LIORESAL INTRATHECAL product insert

solubility ([1]; MPI pH 6.0-8.0, 37° C., aliquots at 2, 5 and 30 min, HPLC, read-out: baclofen concentration achieved in MPI solution): > 4000 µg/mL | solubility ([1]; rapidly achieved without sonication or excessive agitation, read-out: solubility of baclofen in MPI solution): 6000 µg/mL (≈ 28.1 mM)
Compound: NCC(CC(=O)O)c1ccc(Cl)cc1 (stereo not shown) [Baclofen]
solubility in chloroform [2, 4]: insoluble | solubility in methanol [2, 4]: very slightly soluble | solubility in water [2, 4]: slightly soluble | solubility in aqueous saline solution after extreme heating and intense agitation ([2]; heating to as much as 100° C., sonication or high speed stirring, US 2006/0009523): ≤ 12000 µg/mL | baclofen concentration by acid dissolution and back titration method ([2]; initial dissolution at pH below 3.87, then base added, US 2006/0009523): ~10 mg/mL | maximum saline concentration ([2]; saline): 2 mg/mL | solubility in water or saline (known in the art) ([2]; water or saline): below 2 mg/mL | degradation of dissolved baclofen [3]: less than 10%
